Source: PubChem BioAssay AID210 (DTP/NCI, 2004)
Values joined by “and” are separate entries in the source; they are usually repeats but may differ in a detail not shown here. Identical values can stand only once. Inconclusive results and toxic doses are left out. *1 amine or outer side, *2 acyl side, *3 side chain or, on linkers, in order; H or OH if unused. Where a SMILES comes first, the peptide text is derived from it. Bridges are numbered along the chain shown (N, C = ends). Roman numbers before positions name the chains, in order. [ ]: non-standard residue; d: D form. Actinocin(9to1) = Cc1c2oc3c(C)ccc(C(=O)[*:1])c3nc-2c(C(=O)[*:2])c(N)c1=O; aThr = C[C@H](O)[C@H](N)C(=O)O; NMeV = CN[C@H](C(=O)O)C(C)C; Sar = CNCC(=O)O

Test system: CD2F1 mice, ip Colon 26 adenocarcinoma, median survival T/C
Experiment: NCI In Vivo Anticancer Drug Screen. Data for tumor model Colon 26 Adenocarcinoma (intraperitoneal) in CD2F1 (CDF1) mice
Conditions: endpoint: median survival time, higher = longer survival
Procedure: The antitumor activity of compounds was measured in mice bearing transplantable tumors. Survival or tumor size were measured and the results are expressed as the measurement made in the treated group (T) divided by the measurement made in the vehicle treated control group (C). The tumor model used in this assay is Colon 26 Adenocarcinoma (intraperitoneal) in CD2F1 (CDF1) mice

[1] = dose: 12.5 mg/kg/injection, schedule: Q04DX003 (ip), vehicle: saline with Tween-80
[2] = dose: 25.0 mg/kg/injection, schedule: Q04DX003 (ip), vehicle: saline with Tween-80
[3] = dose: 0.5 mg/kg/injection, schedule: Q04DX003 (ip), vehicle: saline
[4] = dose: 1.0 mg/kg/injection, schedule: Q04DX003 (ip), vehicle: saline
[5] = dose: 2.0 mg/kg/injection, schedule: Q04DX003 (ip), vehicle: saline
[6] = dose: 25.0 mg/kg/injection, schedule: Q04DX003 (ip), vehicle: Klucel (hydroxypropylcellulose) (HPC)
[7] = dose: 50.0 mg/kg/injection, schedule: Q04DX003 (ip), vehicle: Klucel (hydroxypropylcellulose) (HPC)
[8] = dose: 100.0 mg/kg/injection, schedule: Q04DX003 (ip), vehicle: Klucel (hydroxypropylcellulose) (HPC)
[9] = dose: 200.0 mg/kg/injection, schedule: Q04DX003 (ip), vehicle: Klucel (hydroxypropylcellulose) (HPC)

With `CCCCCCCC(=O)[O][Hg][CH2]C1COC([CH2][Hg][O]C(=O)CCCCCCC)CO1` (stereo unspecified) the T/C [1] was 95 % of control and the T/C [2] was 90 % of control.
For `COCC1OC(OC2C3=C(C(C)C)CCC3(C)/C=C3\C(CCC3(O)COC)C(C)C2O)C(O)C2OC3OC12OC3(C)C1CO1` (stereo unspecified), the T/C (dose: 0.78 mg/kg/injection, schedule: Q04DX002 (ip), vehicle: Klucel (hydroxypropylcellulose) (HPC)) was 105 % of control and 94 % of control, the T/C (dose: 1.56 mg/kg/injection, schedule: Q04DX002 (ip), vehicle: Klucel (hydroxypropylcellulose) (HPC)) was 104 % of control and 106 % of control and the T/C (dose: 3.12 mg/kg/injection, schedule: Q04DX002 (ip), vehicle: Klucel (hydroxypropylcellulose) (HPC)) was 109 % of control and 95 % of control. For the same compound, the T/C (dose: 6.25 mg/kg/injection, schedule: Q04DX002 (ip), vehicle: Klucel (hydroxypropylcellulose) (HPC)) was 116 % of control and 89 % of control and 100 % of control and the T/C (dose: 12.5 mg/kg/injection, schedule: Q04DX002 (ip), vehicle: Klucel (hydroxypropylcellulose) (HPC)) was 103 % of control and 104 % of control and 98 % of control.
In the case of `CO[C@H](C(=O)[C@@H](O)[C@@H](C)O)[C@@H]1Cc2cc3cc(OC4CC(OC5CC(O)C(O)C(C)O5)C(O)C(C)O4)c(C)c(O)c3c(O)c2C(=O)[C@H]1OC1CC(OC2CC(OC3CC(C)(O)C(O)C(C)O3)C(O)C(C)O2)C(O)C(C)O1` (stereo partly specified), the T/C (dose: 0.25 mg/kg/injection, schedule: Q04DX003 (ip), vehicle: saline) is reported as 96 % of control, the T/C [3] is reported as 98 % of control and the T/C [4] is reported as 98 % of control. For the same compound, the T/C [5] was 100 % of control.
`C#C[C@]1(O)CC[C@H]2[C@@H]3CCc4cc(O)ccc4[C@H]3CC[C@@]21C` was tested, and the T/C [6] was 103 % of control, the T/C [7] was 100 % of control and the T/C [8] was 96 % of control. The T/C [9] was 90 % of control and the T/C (dose: 400.0 mg/kg/injection, schedule: Q04DX003 (ip), vehicle: Klucel (hydroxypropylcellulose) (HPC)) was 86 % of control.
In the case of `COC12[C@@H]3N[C@@H]3CN1C1=C(C(=O)C(NCCSSCCNC3=C(C)C(=O)C4=C(C3=O)C(COC(N)=O)[C@]3(OC)C5N[C@@H]5CN43)=C(C)C1=O)[C@@H]2COC(N)=O` (stereo partly specified), the T/C (dose: 1.0 mg/kg/injection, schedule: Q01DX004 (ip), vehicle: other) is reported as 94 % of control, the T/C (dose: 2.0 mg/kg/injection, schedule: Q01DX004 (ip), vehicle: other) is reported as 99 % of control and the T/C (dose: 2.0 mg/kg/injection, schedule: Q03DX002 (ip), vehicle: other) is reported as 100 % of control. The T/C (dose: 4.0 mg/kg/injection, schedule: Q01DX004 (ip), vehicle: other) was 107 % of control, the T/C (dose: 4.0 mg/kg/injection, schedule: Q03DX002 (ip), vehicle: other) was 117 % of control and the T/C (dose: 6.0 mg/kg/injection, schedule: Q01DX004 (ip), vehicle: other) was 101 % of control. The T/C (dose: 6.0 mg/kg/injection, schedule: Q01DX005 (ip), vehicle: other) was 96 % of control, the T/C (dose: 9.0 mg/kg/injection, schedule: Q01DX005 (ip), vehicle: other) was 96 % of control and the T/C (dose: 9.0 mg/kg/injection, schedule: Q03DX002 (ip), vehicle: other) was 110 % of control. For the same compound, the T/C (dose: 15.0 mg/kg/injection, schedule: Q01DX005 (ip), vehicle: other) was 106 % of control.
`Cc1c2oc3c(C)ccc(C(=O)N[C@@H]4C(=O)N[C@H](C(C)C)C(=O)N5CCC[C@H]5C(=O)N(C)CC(=O)N(C)[C@@H](C(C)C)C(=O)O[C@H]4C)c3nc-2c(C(=O)N[C@@H]2C(=O)N[C@H](C(C)C)C(=O)N3CCC[C@H]3C(=O)N(C)CC(=O)N(C)[C@@H](C(C)C)C(=O)O[C@H]2C)c(N)c1=O` (I: [aThr][dV]P[Sar][NMeV] / II: [aThr][dV]P[Sar][NMeV]; ester I:1-I:C, II:1-II:C; linker I:N-II:N via Actinocin(9to1)) was tested, and the T/C (dose: 0.13 mg/kg/injection, schedule: Q01DX001 (ip), vehicle: saline) was 92 % of control, the T/C (dose: 0.25 mg/kg/injection, schedule: Q01DX001 (ip), vehicle: saline) was 99 % of control and the T/C (dose: 0.5 mg/kg/injection, schedule: Q01DX001 (ip), vehicle: saline) was 110 % of control. For the same compound, the T/C (dose: 1.0 mg/kg/injection, schedule: Q01DX001 (ip), vehicle: saline) was 107 % of control, the T/C (dose: 28.0 micrograms/kg/injection, schedule: Q04DX003 (ip), vehicle: saline) was 122 % of control and the T/C (dose: 125.0 micrograms/kg/injection, schedule: Q01DX001 (ip), vehicle: saline + alcohol) was 113 % of control. For the same compound, the T/C (dose: 180.0 micrograms/kg/injection, schedule: Q04DX003 (ip), vehicle: saline + alcohol) was 123 % of control, the T/C (dose: 216.0 micrograms/kg/injection, schedule: Q04DX003 (ip), vehicle: saline) was 156 % of control and the T/C (dose: 250.0 micrograms/kg/injection, schedule: Q01DX001 (ip), vehicle: saline + alcohol) was 109 % of control. The T/C (dose: 500.0 micrograms/kg/injection, schedule: Q01DX001 (ip), vehicle: saline + alcohol) was 113 % of control and the T/C (dose: 500.0 micrograms/kg/injection, schedule: Q04DX003 (ip), vehicle: saline + alcohol) was 153 % of control.
With `C1CCC2[N-]CC3CCCCC3[N-]CC3CCCCC3[N-]CC3CCCCC3[N-]CC2C1.[Cu]` (stereo unspecified) the T/C (dose: 0.63 mg/kg/injection, schedule: Q04DX003 (ip), vehicle: Klucel (hydroxypropylcellulose) (HPC)) was 110 % of control, the T/C (dose: 1.25 mg/kg/injection, schedule: Q04DX003 (ip), vehicle: Klucel (hydroxypropylcellulose) (HPC)) was 107 % of control and the T/C (dose: 2.5 mg/kg/injection, schedule: Q04DX003 (ip), vehicle: Klucel (hydroxypropylcellulose) (HPC)) was 105 % of control. The T/C (dose: 5.0 mg/kg/injection, schedule: Q04DX003 (ip), vehicle: Klucel (hydroxypropylcellulose) (HPC)) was 111 % of control, the T/C (dose: 10.0 mg/kg/injection, schedule: Q04DX003 (ip), vehicle: Klucel (hydroxypropylcellulose) (HPC)) was 122 % of control and the T/C (dose: 20.0 mg/kg/injection, schedule: Q04DX003 (ip), vehicle: Klucel (hydroxypropylcellulose) (HPC)) was 111 % of control.
For `CCC1OCC(C(Cl)CCl)O1` (stereo unspecified), the T/C (dose: 12.5 mg/kg/injection, schedule: Q04DX003 (ip), vehicle: Klucel (hydroxypropylcellulose) (HPC)) was 116 % of control, the T/C [6] was 97 % of control and the T/C [7] was 99 % of control. The T/C [8] was 104 % of control and the T/C [9] was 92 % of control.
For `CCCCCCCCNc1cc2c3c(c1)CCCN3CCC2`, the T/C (dose: 0.37 mg/kg/injection, schedule: Q04DX003 (ip), vehicle: Klucel (hydroxypropylcellulose) (HPC)) was 104 % of control, the T/C (dose: 0.75 mg/kg/injection, schedule: Q04DX003 (ip), vehicle: Klucel (hydroxypropylcellulose) (HPC)) was 100 % of control and the T/C (dose: 1.5 mg/kg/injection, schedule: Q04DX003 (ip), vehicle: Klucel (hydroxypropylcellulose) (HPC)) was 102 % of control. The T/C (dose: 3.0 mg/kg/injection, schedule: Q04DX003 (ip), vehicle: Klucel (hydroxypropylcellulose) (HPC)) was 109 % of control and the T/C (dose: 6.0 mg/kg/injection, schedule: Q04DX003 (ip), vehicle: Klucel (hydroxypropylcellulose) (HPC)) was 106 % of control.
In the case of `C[C@]12CCC(=O)[C@@](C)(CO)[C@@H]1[C@H](O)C[C@H]1C[C@@H]3C[C@@]12CC[C@]3(O)CO`, the T/C (dose: 5.0 mg/kg/injection, schedule: Q04DX003 (ip), vehicle: saline with Tween-80) is reported as 98 % of control, the T/C (dose: 10.0 mg/kg/injection, schedule: Q04DX003 (ip), vehicle: saline with Tween-80) is reported as 96 % of control and the T/C (dose: 20.0 mg/kg/injection, schedule: Q04DX003 (ip), vehicle: saline with Tween-80) is reported as 90 % of control. The T/C (dose: 40.0 mg/kg/injection, schedule: Q04DX003 (ip), vehicle: saline with Tween-80) was 90 % of control and the T/C (dose: 80.0 mg/kg/injection, schedule: Q04DX003 (ip), vehicle: saline with Tween-80) was 100 % of control.
`COc1ccc(CC2C(=O)NC(C)C(=O)N(C)C3Cc4ccc(cc4)Oc4cc(ccc4O)CC(C(=O)NC(C)C(=O)NC(C)C(=O)N2C)N(C)C3=O)cc1` (stereo unspecified) was tested, and the T/C [3] was 97 % of control, the T/C [4] was 98 % of control and the T/C [5] was 87 % of control. The T/C (dose: 2.59 mg/kg/injection, schedule: Q04DX003 (ip), vehicle: other) was 99 % of control, the T/C (dose: 4.32 mg/kg/injection, schedule: Q04DX003 (ip), vehicle: other) was 103 % of control and the T/C (dose: 7.2 mg/kg/injection, schedule: Q04DX003 (ip), vehicle: other) was 112 % of control. For the same compound, the T/C (dose: 12.0 mg/kg/injection, schedule: Q04DX003 (ip), vehicle: other) was 113 % of control.
`CC(=O)Nc1ccc(O)c(O)c1` was tested, and the T/C [1] was 94 % of control, the T/C [2] was 106 % of control and the T/C (dose: 50.0 mg/kg/injection, schedule: Q04DX003 (ip), vehicle: saline with Tween-80) was 96 % of control. For the same compound, the T/C (dose: 100.0 mg/kg/injection, schedule: Q04DX003 (ip), vehicle: saline with Tween-80) was 120 % of control, the T/C (dose: 200.0 mg/kg/injection, schedule: Q04DX003 (ip), vehicle: saline with Tween-80) was 100 % of control and the T/C (dose: 400.0 mg/kg/injection, schedule: Q04DX003 (ip), vehicle: saline with Tween-80) was 108 % of control.
